From paper PMC10301922, “Anti-Oxidant, Anti-Mutagenic Activity and Safety Evaluation of Antrocin” (Toxics, 2023)

System: Salmonella typhimurium TA1535
Experiment: Antimutagenicity test, TA1535
[1] = TA1535, with S9, mutagen 2-AA 25 μg/plate, antrocin 0.025 mg/plate
[2] = TA1535, with S9, mutagen 2-AA 25 μg/plate, antrocin 0.05 mg/plate
[3] = TA1535, with S9, mutagen 2-AA 25 μg/plate, antrocin […]
[4] = TA1535, without S9, mutagen sodium azide 5 μg/plate, antrocin 0.025 mg/plate
[5] = TA1535, without S9, mutagen sodium azide 5 μg/plate, antrocin 0.05 mg/plate
[6] = TA1535, without S9, mutagen sodium azide 5 μg/plate, antrocin […]

## C=C1CC[C@H]2C(C)(C)CCC[C@@]23C(=O)OC[C@@H]13 [Antrocin, (-)-Antrocin]
[1]
  Inhibition (%) of mutagenicity: 20.49%
  Number of Revertant: 217.3 ± 10.2 Colony/Plate
[2]
  Inhibition (%) of mutagenicity: 33.25%
  Number of Revertant: 184.3 ± 3.8 Colony/Plate
[3]
  Inhibition (%) of mutagenicity: 8.63%
  Number of Revertant: 248.0 ± 9.5 Colony/Plate
[4]
  Inhibition (%) of mutagenicity: 16.74%
  Number of Revertant: 1095.0 ± 28.0 Colony/Plate
[5]
  Inhibition (%) of mutagenicity: 25.80%
  Number of Revertant: 977.0 ± 18.1 Colony/Plate
[6]
  Inhibition (%) of mutagenicity: 4.40%
  Number of Revertant: 1255.7 ± 47.7 Colony/Plate
